Legend:
GluN1/2B receptors = GluN1/2B receptors (Rattus norvegicus, UniProt P35439+Q00960); assay type: cell-based
GluN1/2A receptors = GluN1/2A receptors (Rattus norvegicus, UniProt P35439+Q00959); assay type: cell-based; settings: for increase of IC50 in 30 μM glycine compared to 3 μM glycine: 100 μM glutamate; for extent of inhibition of GluN1/2A / IC50: activated by 100 μM glutamate plus 3 μM glycine; for IC50: read-out: IC50 for inhibition of GluN1/2A
[1] = Solubility-limited maximal concentration in recording solution; assay type: physicochemical; settings: extracellular recording solution pH 7.4, DMSO < 0.3%
GluN1/2B-D receptors = assay type: cell-based
[2] = target: GluN1/2A receptors with GluN2A-V783F (Rattus norvegicus, UniProt P35439+Q00959, V783F); assay: Glycine concentration-response and Schild analysis, GluN2A-V783F; assay type: cell-based; settings: read-out: binding affinity KB
[3] = target: GluN1/2A receptors with GluN1-F754V (Rattus norvegicus, UniProt P35439+Q00959, F754V); assay: Glycine concentration-response and Schild analysis, GluN1-F754V; assay type: cell-based
Chain of GluN1/2A receptors with GluN1-F754V (Q00959 20-1464 limits assumed, other chains not shown): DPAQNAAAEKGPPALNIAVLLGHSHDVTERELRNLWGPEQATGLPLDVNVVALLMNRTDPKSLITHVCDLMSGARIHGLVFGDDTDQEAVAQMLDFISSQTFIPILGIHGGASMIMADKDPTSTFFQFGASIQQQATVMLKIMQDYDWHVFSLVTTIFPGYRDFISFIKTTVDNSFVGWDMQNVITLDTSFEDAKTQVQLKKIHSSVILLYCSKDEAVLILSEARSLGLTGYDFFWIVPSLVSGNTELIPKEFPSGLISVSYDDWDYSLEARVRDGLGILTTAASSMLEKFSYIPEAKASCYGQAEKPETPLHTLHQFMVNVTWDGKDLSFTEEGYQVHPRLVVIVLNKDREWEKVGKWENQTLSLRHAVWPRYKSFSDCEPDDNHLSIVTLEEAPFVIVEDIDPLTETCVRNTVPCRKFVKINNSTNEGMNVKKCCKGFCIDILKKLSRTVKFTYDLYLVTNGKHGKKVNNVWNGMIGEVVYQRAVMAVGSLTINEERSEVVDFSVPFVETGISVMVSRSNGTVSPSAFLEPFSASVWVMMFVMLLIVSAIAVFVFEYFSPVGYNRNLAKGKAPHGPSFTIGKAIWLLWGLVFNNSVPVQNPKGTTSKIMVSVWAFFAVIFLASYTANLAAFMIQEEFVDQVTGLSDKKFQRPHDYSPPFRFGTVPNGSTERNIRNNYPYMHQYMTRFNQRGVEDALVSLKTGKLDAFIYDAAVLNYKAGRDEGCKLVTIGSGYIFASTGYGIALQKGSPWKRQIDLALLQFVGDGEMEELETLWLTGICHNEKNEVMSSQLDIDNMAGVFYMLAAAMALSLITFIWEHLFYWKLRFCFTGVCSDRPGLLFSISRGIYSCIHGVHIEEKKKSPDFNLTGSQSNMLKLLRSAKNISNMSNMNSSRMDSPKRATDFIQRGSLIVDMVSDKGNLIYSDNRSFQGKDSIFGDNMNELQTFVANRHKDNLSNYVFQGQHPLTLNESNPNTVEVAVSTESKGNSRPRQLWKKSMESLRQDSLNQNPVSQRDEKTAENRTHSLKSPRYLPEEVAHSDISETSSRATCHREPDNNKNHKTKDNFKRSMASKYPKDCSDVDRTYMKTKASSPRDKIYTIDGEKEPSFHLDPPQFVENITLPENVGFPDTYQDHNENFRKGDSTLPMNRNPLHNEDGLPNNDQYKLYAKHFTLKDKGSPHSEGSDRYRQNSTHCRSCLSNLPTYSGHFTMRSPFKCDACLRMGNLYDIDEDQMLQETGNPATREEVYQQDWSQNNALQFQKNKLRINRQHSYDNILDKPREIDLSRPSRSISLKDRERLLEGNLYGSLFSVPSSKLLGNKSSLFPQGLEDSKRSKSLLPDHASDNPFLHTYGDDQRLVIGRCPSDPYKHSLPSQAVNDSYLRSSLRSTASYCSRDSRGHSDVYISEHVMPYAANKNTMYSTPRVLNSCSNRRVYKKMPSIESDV

[4] = target: GluN1/2A receptors with GluN2A-V783A (Rattus norvegicus, UniProt P35439+Q00959, V783A); assay: Glycine concentration-response and Schild analysis, GluN2A-V783A; assay type: cell-based
[5] = target: GluN1/2A receptors with GluN1-R755A (Rattus norvegicus, UniProt P35439+Q00959, R755A); assay: TCN-201 inhibition, GluN1-R755A; assay type: cell-based
[6] = target: GluN1/2A receptors with GluN1-Y535L (Rattus norvegicus, UniProt P35439+Q00959, Y535L); assay: Schild analysis of TCN-201, GluN1-Y535L; assay type: cell-based
[7] = target: GluN1/2A receptors with GluN1-F754L (Rattus norvegicus, UniProt P35439+Q00959, F754L); assay: Glycine concentration-response and Schild analysis, GluN1-F754L; assay type: cell-based
[8] = target: GluN1/2A receptors with GluN1-Y535F (Rattus norvegicus, UniProt P35439+Q00959, Y535F); assay: Schild analysis of TCN-201, GluN1-Y535F; assay type: cell-based
[9] = target: wild type GluN1/2A receptors (Rattus norvegicus, UniProt P35439+Q00959); assay type: cell-based
[10] = target: GluN1-CC/2A receptors (GluN1-N499C+Q686C) (Rattus norvegicus, UniProt P35439+Q00959, N499C/Q686C); assay type: cell-based; settings: 100 μM glutamate alone; glycine 300 μM, 7CKA 10 μM, TCN-201 5 μM, MPX-004 10 μM, MPX-007 30 μM

Chain of GluN1/2A receptors (Q00959 20-1464 limits assumed, other chains not shown): as above
Chain of GluN1/2B receptors (Q00960 27-1482, other chains not shown): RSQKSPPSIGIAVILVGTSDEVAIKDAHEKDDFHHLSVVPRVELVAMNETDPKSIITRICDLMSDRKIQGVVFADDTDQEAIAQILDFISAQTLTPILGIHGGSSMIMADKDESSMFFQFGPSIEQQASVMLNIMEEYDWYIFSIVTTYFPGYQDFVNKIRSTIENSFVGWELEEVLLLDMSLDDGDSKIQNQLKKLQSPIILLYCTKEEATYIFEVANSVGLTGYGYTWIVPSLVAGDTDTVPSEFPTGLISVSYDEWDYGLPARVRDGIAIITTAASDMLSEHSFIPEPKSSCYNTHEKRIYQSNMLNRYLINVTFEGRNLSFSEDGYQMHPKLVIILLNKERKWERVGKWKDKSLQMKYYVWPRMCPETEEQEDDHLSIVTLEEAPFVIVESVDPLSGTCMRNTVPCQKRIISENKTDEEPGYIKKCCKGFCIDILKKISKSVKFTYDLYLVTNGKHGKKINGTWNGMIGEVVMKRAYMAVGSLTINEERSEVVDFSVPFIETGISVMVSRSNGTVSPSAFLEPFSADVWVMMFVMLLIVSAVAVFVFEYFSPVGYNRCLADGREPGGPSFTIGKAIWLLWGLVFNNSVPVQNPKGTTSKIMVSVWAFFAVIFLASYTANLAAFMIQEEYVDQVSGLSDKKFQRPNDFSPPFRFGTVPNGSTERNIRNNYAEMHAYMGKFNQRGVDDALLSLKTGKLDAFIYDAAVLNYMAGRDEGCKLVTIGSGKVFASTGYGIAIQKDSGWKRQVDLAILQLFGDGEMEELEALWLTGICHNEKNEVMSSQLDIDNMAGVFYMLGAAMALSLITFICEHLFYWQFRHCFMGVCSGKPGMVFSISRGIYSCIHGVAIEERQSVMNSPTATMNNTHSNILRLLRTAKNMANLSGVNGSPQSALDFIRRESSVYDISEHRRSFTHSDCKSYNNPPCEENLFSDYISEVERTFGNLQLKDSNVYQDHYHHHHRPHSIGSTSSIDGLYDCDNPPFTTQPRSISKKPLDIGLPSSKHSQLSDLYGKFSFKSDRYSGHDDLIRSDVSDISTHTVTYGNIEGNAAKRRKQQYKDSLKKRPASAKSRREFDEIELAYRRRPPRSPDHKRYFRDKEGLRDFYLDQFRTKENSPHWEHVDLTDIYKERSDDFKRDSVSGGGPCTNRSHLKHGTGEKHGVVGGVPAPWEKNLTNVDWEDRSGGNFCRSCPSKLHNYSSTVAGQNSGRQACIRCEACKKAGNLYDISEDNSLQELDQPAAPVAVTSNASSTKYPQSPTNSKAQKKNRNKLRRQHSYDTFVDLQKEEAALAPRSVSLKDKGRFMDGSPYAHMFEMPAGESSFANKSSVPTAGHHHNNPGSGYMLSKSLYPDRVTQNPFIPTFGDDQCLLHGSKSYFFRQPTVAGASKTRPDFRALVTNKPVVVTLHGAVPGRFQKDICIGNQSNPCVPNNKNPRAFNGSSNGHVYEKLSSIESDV

| Compound | increase of IC50 in 30 μM glycine compared to 3 μM glycine (GluN1/2A receptors; GluN1/2A) | maximal inhibition (GluN1/2A receptors; GluN1/2A, 300 μM glycine) | extent of inhibition of GluN1/2A (GluN1/2A receptors) | IC50 (GluN1/2A receptors) | maximal concentration used, limited by compound solubility [1] | selectivity for GluN1/2A over GluN1/2B-D (GluN1/2B-D receptors) | effect on glutamate-activated responses from crosslinked GluN1-CC/2A [10] | also measured |
| --- | --- | --- | --- | --- | --- | --- | --- | --- |
| Cc1ncc(CNC(=O)c2cnc(CNS(=O)(=O)c3ccc(F)c(F)c3)c(C)n2)s1 [MPX-007] | 3.2 fold | 95% ± 1% | nearly complete inhibition | ~200 nM | 30 µM | – | – | glycine-sensitivity of inhibition of GluN1/2B (GluN1/2B receptors): sensitive to the glycine concentration; inhibition of GluN1/2B receptors (GluN1/2B receptors; 30 μM compound, 3 μM glycine, n = 6): 48% ± 3%; concentrations at which GluN1/2B-D receptors are inhibited (GluN1/2B-D receptors): 10 to 30 µM |
| O=C(NNC(=O)c1ccc(CNS(=O)(=O)c2ccc(F)c(Cl)c2)cc1)c1ccccc1 [TCN-201] | – | – | nearly complete inhibition | ~200 nM | 5 µM | strict selectivity | – | Kb [2]: 186 nM; allosteric constant [3]: 0.086; maximal increase of glycine EC50 (1/α) [3]: 12 fold; Kb ([3]; read-out: binding affinity KB): 131 nM; allosteric constant α [4]: 0.001; inhibition in 300 μM glycine (GluN1/2A receptors; GluN1/2A, 300 μM glycine): markedly diminished; inhibition [5]: abolished; allosteric constant [6]: 0.016; allosteric constant [7]: 0.018; binding affinity KB compared to wild type [7]: little to no change; allosteric constant compared to wild type [8]: virtually unchanged; binding affinity KB compared to wild type [8]: virtually unchanged; maximal increase of glycine EC50 (1/α) [9]: 143 fold; allosteric constant α ([9]; Schild analysis): 0.007 |
| O=C(O)c1cc(O)c2ccc(Cl)cc2n1 [7CKA] | – | – | – | – | – | – | not sensitive | – |
| Cc1ncc(CNC(=O)c2cnc(CNS(=O)(=O)c3ccc(F)c(Cl)c3)cn2)s1 [MPX-004] | 3.8 fold | 71% ± 4% | nearly complete inhibition | ~200 nM | 10 µM | strict selectivity | significant potentiation | – |

Reference: paper PMC5033714 (Neuron, 2016)
